Where a name gives a salt, the structure may show the parent alone.
What was measured:
Format in all cases: functional, cell-based
[1] = target: T1, Solute carrier family 22 member 11 (Homo sapiens, UniProt Q9NSA0); experiment: TP_TRANSPORTER: inhibition of E1S uptake (E1S: 5 uM, indoxyl sulfate:500 uM) in S2 cells expressing human-OAT4
T1 sequence (Q9NSA0 whole entry): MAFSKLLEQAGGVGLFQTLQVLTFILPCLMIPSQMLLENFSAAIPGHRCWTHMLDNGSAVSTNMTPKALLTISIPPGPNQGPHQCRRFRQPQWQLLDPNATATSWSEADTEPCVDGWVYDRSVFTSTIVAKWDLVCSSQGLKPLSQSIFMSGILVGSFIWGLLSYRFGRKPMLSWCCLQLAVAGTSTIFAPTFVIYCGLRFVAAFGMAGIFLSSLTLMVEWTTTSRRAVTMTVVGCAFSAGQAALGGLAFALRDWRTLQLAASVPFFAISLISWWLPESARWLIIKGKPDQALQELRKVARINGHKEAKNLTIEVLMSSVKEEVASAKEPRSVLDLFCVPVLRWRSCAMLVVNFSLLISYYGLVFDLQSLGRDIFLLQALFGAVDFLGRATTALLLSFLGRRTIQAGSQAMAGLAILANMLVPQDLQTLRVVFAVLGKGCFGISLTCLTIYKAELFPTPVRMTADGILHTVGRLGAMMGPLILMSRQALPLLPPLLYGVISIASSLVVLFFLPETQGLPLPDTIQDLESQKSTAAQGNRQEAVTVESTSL

[2] = target: T1, Solute carrier family 22 member 11; experiment: TP_TRANSPORTER: uptake in OAT4-S2 cells; conditions: mouse
[3] = target: T1, Solute carrier family 22 member 11; experiment: TP_TRANSPORTER: uptake&inhibition of estrone sulfate in OAT4-S2 cells
[4] = target: T2, Organic anion transporter 3 (Homo sapiens, UniProt Q8TCC7); experiment: TP_TRANSPORTER: uptake in OAT3-S2 cells; conditions: mouse
T2 sequence (Q8TCC7 whole entry): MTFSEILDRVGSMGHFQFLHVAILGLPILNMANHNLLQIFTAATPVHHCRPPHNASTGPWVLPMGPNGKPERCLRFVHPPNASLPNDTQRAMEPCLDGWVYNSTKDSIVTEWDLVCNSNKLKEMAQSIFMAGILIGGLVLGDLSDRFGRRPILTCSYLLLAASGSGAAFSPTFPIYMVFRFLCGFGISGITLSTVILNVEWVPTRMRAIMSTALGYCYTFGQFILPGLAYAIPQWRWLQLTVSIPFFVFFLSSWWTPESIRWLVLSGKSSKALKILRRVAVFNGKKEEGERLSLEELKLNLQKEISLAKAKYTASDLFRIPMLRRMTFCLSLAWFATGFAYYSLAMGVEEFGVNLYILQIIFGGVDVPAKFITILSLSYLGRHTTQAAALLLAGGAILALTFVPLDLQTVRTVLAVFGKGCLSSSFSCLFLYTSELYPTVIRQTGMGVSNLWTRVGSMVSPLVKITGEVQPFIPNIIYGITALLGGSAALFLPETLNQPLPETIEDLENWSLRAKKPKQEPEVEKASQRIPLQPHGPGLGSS

SMILES: O=S(=O)(O)Oc1c[nH]c2ccccc12 [INDOXYL SULFATE]
- Ki [1]: 181 µM
- Activity [2]: substrate []
- Ki [3]: 181 µM
- Activity [4]: substrate []
